Data as given in patent US20150126530A1, “Novel Substituted Imidazopyrimidines as Gpbar1 Receptor Modulators” (Torrent Pharmaceuticals Limited., priority 2011, published 2015).
pEC50: −log10 of the molar value.

How the values were obtained:
[1] = system: Diabetic Hamster; assay: Efficacy study on repeated dosing in diabetic hamster; assay type: in vivo; conditions: for HOMA-IR: from fasting glucose and insulin
Procedure: (§1) ii) Evaluation of Efficacy of Test Compounds on Repeated Dosing in Diabetic Hamster and DIO Mice. […]
a) Efficacy Study in Diabetic Hamster
Diabetic hamsters were randomized to two treatment groups viz. vehicle treated and test compound treated group. Then the animals were treated with compound 7 of present invention or vehicle for 2 weeks to assess the efficacy potential of the compound. Effect of treatment on glucose excursion and insulin secretion during OGTT, change in body weight & fasting and random plasma triglycerides (TG) was evaluated during the treatment period. The effect of repeated administration of compound on energy expenditure was evaluated through monitoring oxygen consumption (VO2) over 21 hrs period by indirect calorimetry (Oxymax System, Columbus Instruments). HOMA-IR an index of insulin resistance was estimated using fasting glucose and insulin levels estimated during OGTT.
Similarly, the study was conducted using compound no 50 of the present invention for the duration of four week period in Diabetic hamsters.

[2] = system: Diabetic Hamster; assay: Single dose efficacy on glucose tolerance (OGTT) in diabetic hamster; assay type: in vivo; conditions: Mesocricetus auratus, read-out: Decrease in AUC of glucose % change w.r.t. vehicle control group
Procedure: i) Evaluation of Single Dose Efficacy of Test Compounds on Glucose Tolerance:
Thus efficacy can be assessed through the effect of test compounds on lowering of plasma glucose during OGTT through stimulating glucose stimulated insulin secretion.
The potential of test compounds in lowering of Plasma Glucose was evaluated in Oral glucose tolerance test (OGTT) in Diabetic Hamster Model, where diabetes has been induced by administration of low dose of Streptozotocin (STZ) to the High fat diet (HFD) fed glucose intolerant animals. The diabetic hamsters show impaired glucose stimulated insulin secretion and higher plasma glucose excursions than the normal animals, which remains elevated beyond 2 hrs post glucose load. Thus the animal model can be used for evaluating the potential of test compounds to lower plasma glucose through stimulating glucose stimulated insulin secretion. On the day of study post 6 hrs of fasting, test compounds or vehicle was administered orally at dose volume of 2 ml/kg to the hamsters of the respective treatment groups. Subsequent to dosing, a pre-glucose load blood sample was taken. A glucose load of 40% solution at 5 ml/Kg dose volume was administered orally. Blood samples through retroorbital plexus were taken at 15, 30 60 & 120 min. post glucose load and plasma was separated for glucose measurement. Post glucose load percentage change in plasma glucose and AUC of % change glucose by the treatment was assessed.

[3] = molecular target: T1, human TGR5 (Homo sapiens, UniProt Q8TDU6); assay: cAMP Responsive Element (CRE)-Reporter Assay; assay type: cell-based; conditions: luciferase activity relative to vehicle control, five hours, CHO cells transfected with human TGR5 and CRE-luciferase
T1 construct: host or cells: CHO cells (ATCC)
T1 sequence (Q8TDU6 1-330): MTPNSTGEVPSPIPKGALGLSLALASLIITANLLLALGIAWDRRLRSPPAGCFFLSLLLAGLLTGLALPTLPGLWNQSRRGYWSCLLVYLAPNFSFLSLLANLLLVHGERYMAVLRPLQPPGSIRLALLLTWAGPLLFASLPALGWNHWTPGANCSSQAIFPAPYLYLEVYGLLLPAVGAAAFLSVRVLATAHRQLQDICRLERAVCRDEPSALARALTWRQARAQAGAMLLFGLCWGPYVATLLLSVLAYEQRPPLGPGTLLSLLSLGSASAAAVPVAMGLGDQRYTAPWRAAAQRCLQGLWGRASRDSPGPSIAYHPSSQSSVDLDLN
Procedure: (A) cAMP Responsive Element (CRE)-Reporter Assay:
CHO cells (ATCC) were transfected with human TGR5 (oriGene) and CRE-luciferase reporter vector. Transfected cells were treated with vehicle control or test compounds (Conc 10 μM) for five hours and then lysed. Cell lysates were monitored for luciferase acivity. Increase in luciferase activity is considered as a result of TGR5 activation. Results were expressed as fold induction as compared to vehicle control.
Results are summarized in Table 2 where, + indicates 1.5-2 fold while ++, +++, ++++ indicate 2-3 fold, 3-4 fold, and >4 fold induction respectively relative to vehicle control when tested at 10 μM concentration.

[4] = molecular target: T1, human TGR5; assay: cAMP Measurement Assay (Alphascreen); assay type: cell-based; conditions: cAMP levels, CHO cells transfected with human TGR5, one hour
Procedure: (B) cAMP Measurement Assay:
CHO cells (ATCC) were transfected with human TGR5 vector (oriGene). Transfected cells were treated with vehicle control or test compounds for one hour and then lysed. Levels of cAMP were measured in cell lysates employing Alphascreen cAMP assay kit (Perkin Elmer) and results were expressed EC50 values which are summarized in Table 3.

[5] = system: DIO mice; assay: Efficacy study on repeated dosing in DIO mice; assay type: in vivo; conditions: od; for % Change in body wt from basal: repeated administration
Procedure: as §1
b) Efficacy Study in DIO Mice
Male C57B1/6J mice were made insulin resistant by feeding on High fat diet (45.5% Kcal from Fat, Research Diet) from the age of 6-8 week onwards. After being on High fat diet for 6-8 weeks the animals with similar body weights & fasting plasma glucose were further randomized into treatment groups. Then the animals were treated with compounds 7 to assess the efficacy potential during treatment duration. Effect of treatment on glucose excursion and insulin secretion during OGTT, Fasting Plasma Glucose & Insulin, lipid profile and body weight were evaluated. The compound for enhancing energy expenditure was evaluated by monitoring oxygen consumption (VO2) and carbon dioxide release (VCO2) over 24 hrs period by indirect calorimetry (Oxymax System, Columbus Instruments).
Similarly, the study was conducted in DIO mice with compound no 50 of the present invention.

[6] = system: Human enteroendocrine cell-line (NCI-H716); assay: Measurement of Glucagon Like Peptide-1 (GLP-1) secretion; assay type: cell-based; conditions: NCI-H716 cells, one hour, with respect to vehicle control
Procedure: (C) Measurement of Glucagon Like Peptide-1 (GLP-1):
Human enteroendocrine cell-line (NCI-H716) were incubated with vehicle or test compounds for one hour. At the end of incubation period, levels of secreted GLP-1 in culture medium were measured by GLP-1 ELISA kit (Millipore). Results are summarized as fold increase in GLP secretion with respect to vehicle control in Table 4.

[7] = 20 mg/kg, po, bid, 2 weeks, listed as compound no. 7, 20 mg/kg
[8] = compound no. 7 repeated dosing, 2 weeks
[9] = 1.5 mg/kg, listed as compound no. 7, 1.5 mg/kg
[10] = 6 mg/kg, i.p. OD, four week, listed as compound no. 50, 6 mg/kg
[11] = compound no. 50 repeated dosing, four week
[12] = 9 mg/kg, listed as compound no. 50, 9 mg/kg

Question: For `CN(C(=O)c1c(-c2ccc(F)cc2)nc2ncccn12)c1ccc(Cl)cc1` [Compound no. 7, N-(4-chlorophenyl)-2-(4-fluorophenyl)-N-methylimidazo[1,2-a]pyrimidine-3-carboxamide], which “% Change in body wt fro basal” value ([1]; 20 mg/kg, po, bid, 2 weeks) is on record?
Answer: −5.2 ± 1.6%

Question: What about the “AUC_Insulin % change during OGTT” value ([1]; 20 mg/kg, po, bid, 2 weeks) of the same molecule?
Answer: 2280.6 ± 428.8

Question: What about the “AUC_glucose % change during OGTT” value ([1]; 20 mg/kg, po, bid, 2 weeks) of the same molecule?
Answer: 12714.43 ± 912

Question: What about the “Fasting plasma TG” value ([1]; 20 mg/kg, po, bid, 2 weeks) of the same molecule?
Answer: 188.35 ± 3.7 mg/dL

Question: And the “Random plasma T” value ([1]; 20 mg/kg, po, bid, 2 weeks)?
Answer: 344.38 ± 90.3 mg/dL

Question: And the HOMA-IR ([1]; 20 mg/kg, po, bid, 2 weeks)?
Answer: 15.6 ± 2.1

Question: And the HOMA-IR [1, 7]?
Answer: decrease in HOMA-IR

Question: And the Oxygen consumption ([1]; 20 mg/kg, po, bid, 2 weeks, indirect calorimetry over 21 hrs)?
Answer: 22.551 ± 0.638 mL/min/kg

Question: And the Oxygen consumption ([1]; 20 mg/kg, po, bid, 2 weeks, indirect calorimetry over 21 hrs, listed as compound no. 7, 20 mg/kg)?
Answer: increased energy expenditure

Question: What about the “% Change in body wt fro basal” value [1, 7] of the same molecule?
Answer: reduced body weight

Question: And the “AUC_Insulin % change during OGTT” value [1, 7]?
Answer: improved insulin secretion

Question: And the “AUC_glucose % change during OGTT” value [1, 7]?
Answer: reduced glucose excursion

Question: And the “Fasting plasma TG” value [1, 7]?
Answer: decreased plasma TG levels

Question: And the “decrease in LDL” value [1, 8]?
Answer: 14%

Question: What about the “decrease in non HDL” value [1, 8] of the same molecule?
Answer: 24%

Question: And the “improvement in HDL:LDL ratio” value [1, 8]?
Answer: 24%

Question: What about the “increase in HDL” value [1, 8] of the same molecule?
Answer: 7%

Question: And the inhibition in vivo at 38 mg/kg ([2]; single oral dose 38 mg/kg)?
Answer: 39%

Question: And the fold induction at 10 µM [3]?
Answer: > 4

Question: And the pEC50 [4]?
Answer: 7.05

Question: And the “AUC_Insulin % change during OGTT” value ([5]; 1.5 mg/kg)?
Answer: 5431.0 ± 920.9

Question: And the “AUC_glucose % change during OGTT” value ([5]; 1.5 mg/kg)?
Answer: 4526.7 ± 876.8

Question: And the “Fasting plasma TG” value ([5]; 1.5 mg/kg)?
Answer: 40.4 ± 2.3 mg/dL

Question: And the HOMA-IR ([5]; 1.5 mg/kg)?
Answer: 4.7 ± 1.68

Question: And the Oxygen consumption ([5]; 1.5 mg/kg, indirect calorimetry over 24 hrs)?
Answer: 51.938 ± 1.768 mL/min/kg

Question: What about the Oxygen consumption ([5]; 1.5 mg/kg, indirect calorimetry over 24 hrs, listed as compound no. 7, 1.5 mg/kg) of the same molecule?
Answer: increased energy expenditure

Question: And the “AUC_Insulin % change during OGTT” value [5, 9]?
Answer: improved insulin secretion

Question: And the “AUC_glucose % change during OGTT” value [5, 9]?
Answer: reduced glucose excursion

Question: And the “Fasting plasma TG” value [5, 9]?
Answer: decreased plasma TG levels

Question: What about the HOMA-IR [5, 9] of the same molecule?
Answer: decrease in HOMA-IR

Question: And the “% Change in body wt from basal” value ([5]; 1.5 mg/kg)?
Answer: −3.19 ± 1.32%

Question: And the “% Change in body wt from basal” value [5, 9]?
Answer: reduced body weight

Question: And the “Fold increase in GLP Release” value [6]?
Answer: 3.72 fold

Question: Which results are given for `CN(C(=O)c1c(Oc2ccc(F)cc2)nc2ncccn12)c1ccc(Cl)cc1` [Compound no. 50, N-(4-chlorophenyl)-2-(4-fluorophenoxy)-N-methylimidazo[1,2-a]pyrimidine-3-carboxamide]?
Answer: % Change in body wt from basal ([1]; 6 mg/kg, i.p. OD, four week): −1.56%; AUC_glucose % change during OGTT ([1]; 6 mg/kg, i.p. OD, four week): 6225.7; Fasting plasma TG ([1]; 6 mg/kg, i.p. OD, four week): 97.8 mg/dL; Oxygen consumption ([1]; 6 mg/kg, i.p. OD, four week): 25.0092 mL/min/kg; % Change in body wt from basal [1, 10]: reduced body weight; AUC_glucose % change during OGTT [1, 10]: reduced glucose excursion; Fasting plasma TG [1, 10]: decreased plasma TG levels; Oxygen consumption [1, 10]: increased energy expenditure; decrease in LDL [1, 11]: 16%; decrease in non HDL [1, 11]: 24%; improvement in HDL:LDL ratio [1, 11]: 16%; inhibition in vivo at 40 mg/kg ([2]; single oral dose 40 mg/kg): 10%; fold induction at 10 µM [3]: > 4; pEC50 [4]: 6.45; AUC_Insulin % change during OGTT ([5]; 9 mg/kg): 12938.8; AUC_glucose % change during OGTT ([5]; 9 mg/kg): 7763.5; HOMA-IR ([5]; 9 mg/kg): 1.96; Oxygen consumption ([5]; 9 mg/kg): 46.125 mL/min/kg; AUC_Insulin % change during OGTT [5, 12]: improved insulin secretion; AUC_glucose % change during OGTT [5, 12]: reduced glucose excursion; HOMA-IR [5, 12]: decrease in HOMA-IR; Oxygen consumption [5, 12]: increased energy expenditure; % Change in body wt from basal ([5]; 9 mg/kg): −3.29%; % Change in body wt from basal [5, 12]: reduced body weight; Fold increase in GLP Release [6]: 1.74 fold
